Source: patent US10457710B2, “Antimicrobial peptides, their variants and uses” (priority 2015, dated 2019)
Values after ≈ are worked out from the molar mass of the structure shown. Where a SMILES comes first, the peptide text is derived from it. [ ]: non-standard residue; d: D form.

How the values were obtained:
Type in all cases: cell-based
[1] = tested on: C. parapsilosis; test: MIC, clinical yeast strains
Procedure, shortened: (§1)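 Overnight MH agar colonies were suspended in MH broth to 5.0×10^5 cfu/ml, mixed with serial peptide dilutions (0.125–128 μg/ml) and incubated at 37° C for 20 to 24 hours. Yeast MICs were run the same way in potato dextrose broth, and wells were scored visually.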

[2] = tested on: Candida albicans; test: MIC, clinical yeast strains
Procedure, shortened: as §1

[3] = tested on: C. glabrata; test: MIC, clinical yeast strains
Procedure, shortened: as §1

[4] = tested on: C. quillermondiae; test: MIC, clinical yeast strains; set-up: Minimum inhibitory concentration: unit: μg/ml; conditions: C. quillermondiae clinical yeast strain 1
Procedure, shortened: as §1

[5] = tested on: clinical strains of A. johnsonii; test: MIC, microdilution, clinical strains; set-up: unit: μg/ml; conditions: Acinetobacter johnsonii strain 1, Muller Hinton broth-cation adjusted, 0.02% BSA, 0.2% acetic acid
Procedure, shortened: as §1

[6] = tested on: clinical strains of Acinetobacter baumannii; test: MIC, microdilution, clinical strains; set-up: unit: μg/ml; conditions: 0.02% BSA, 0.2% acetic acid
Procedure, shortened: (§2)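 MIC = lowest peptide concentration without visual growth after 20–24 h at 37° C. Range 0.125–128 μg/ml, inoculum 5.0×10^5 cfu/ml, microdilution format. Antifungal tests used potato dextrose broth; bacterial tests used MH broth.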

[7] = tested on: clinical strains of P. aeruginosa; test: MIC, microdilution, clinical strains; conditions: 0.02% BSA, 0.2% acetic acid
Procedure, shortened: as §2

[8] = tested on: clinical strains of E. coli; test: MIC, microdilution, clinical strains
Procedure, shortened: as §2

[9] = tested on: clinical strains of E. cloacae; test: MIC, microdilution, clinical strains; conditions: 0.02% BSA, 0.2% acetic acid
Procedure, shortened: as §2

[10] = tested on: clinical strains of K. pneumoniae; test: MIC, microdilution, clinical strains; conditions: 0.02% BSA, 0.2% acetic acid
Procedure, shortened: as §2

[11] = tested on: clinical strains of S. pneumoniae; test: MIC, microdilution, clinical strains; conditions: 0.02% BSA, 0.2% acetic acid
Procedure, shortened: as §2

[12] = tested on: clinical strains of S. aureus; test: MIC, microdilution, clinical strains; conditions: 0.02% BSA, 0.2% acetic acid
Procedure, shortened: as §2

[13] = tested on: clinical strains of Serratia marcescens; test: MIC, microdilution, clinical strains; conditions: 0.02% BSA, 0.2% acetic acid
Procedure, shortened: as §2

[14] = tested on: clinical strains of Proteus mirabilis; test: MIC, microdilution, clinical strains; conditions: 0.02% BSA, 0.2% acetic acid
Procedure, shortened: as §2

CC(C)C[C@@H](NC(=O)[C@H](N)CCCNC(=N)N)C(=O)N[C@H](CCCCN)C(=O)N[C@H](CCCNC(=N)N)C(=O)N[C@H](Cc1c[nH]c2ccccc12)C(=O)N[C@H](CCCNC(=N)N)C(=O)N[C@H](CC(C)C)C(=O)N[C@H](Cc1ccccc1)C(=O)N[C@H](CCCNC(=N)N)C(=O)N[C@H](CCCCN)C(=O)N[C@H](CCCNC(=N)N)C(=O)O [Chain306D] (H-[dR][dL][dK][dR][dW][dR][dL][dF][dR][dK][dR]-OH)
Minimum inhibitory concentration ([1]; C. parapsilosis clinical yeast strain 1): 8
Minimum inhibitory concentration ([1]; C. parapsilosis clinical yeast strain 2): 16
Minimum inhibitory concentration ([1]; C. parapsilosis clinical yeast strain 3): 16
Minimum inhibitory concentration ([1]; C. parapsilosis clinical yeast strain 4): 4
Minimum inhibitory concentration ([2]; Candida albicans clinical yeast strain 1): 16
Minimum inhibitory concentration ([2]; Candida albicans clinical yeast strain 2): 8
Minimum inhibitory concentration ([2]; Candida albicans clinical yeast strain 3): 8
Minimum inhibitory concentration ([2]; Candida albicans clinical yeast strain 4): 16
Minimum inhibitory concentration ([2]; Candida albicans clinical yeast strain 5): 16
Minimum inhibitory concentration ([3]; C. glabrata clinical yeast strain 1): 8
Minimum inhibitory concentration ([3]; C. glabrata clinical yeast strain 2): 8
Minimum inhibitory concentration ([3]; C. glabrata clinical yeast strain 3): 16
Minimum inhibitory concentration ([3]; C. glabrata clinical yeast strain 4): 32
Minimum inhibitory concentration [4]: 4
Minimum inhibitory concentration [5]: 16
Minimum inhibitory concentration ([6]; Acinetobacter baumannii strain 1, Muller Hinton broth-cation adjusted): 16
Minimum inhibitory concentration ([6]; Acinetobacter baumannii strain 2, Muller Hinton broth-cation adjusted): 32
Minimum inhibitory concentration ([6]; Acinetobacter baumannii strain 3, Muller Hinton broth-cation adjusted): 16
Minimum inhibitory concentration ([6]; Acinetobacter baumannii strain 4, Muller Hinton broth-cation adjusted): 16
Minimum inhibitory concentration ([6]; Acinetobacter baumannii strain 5, Muller Hinton broth-cation adjusted): 8
Minimum inhibitory concentration ([7]; Pseudomonas aeruginosa strain 1, Muller Hinton broth-cation adjusted): 128
Minimum inhibitory concentration ([7]; Pseudomonas aeruginosa strain 2, Muller Hinton broth-cation adjusted): >128
Minimum inhibitory concentration ([7]; Pseudomonas aeruginosa strain 3, Muller Hinton broth-cation adjusted): 128
Minimum inhibitory concentration ([7]; Pseudomonas aeruginosa strain 4, Muller Hinton broth-cation adjusted): >128
Minimum inhibitory concentration ([7]; Pseudomonas aeruginosa strain 5, Muller Hinton broth-cation adjusted): 128
Minimum inhibitory concentration ([8]; Escherichia coli strain 1, microdilution, Muller Hinton broth-cation adjusted, 0.02% BSA, 0.2% acetic acid): 1
Minimum inhibitory concentration ([8]; Escherichia coli strain 2, microdilution, Muller Hinton broth-cation adjusted, 0.02% BSA, 0.2% acetic acid): 2
Minimum inhibitory concentration ([8]; Escherichia coli strain 3, microdilution, Muller Hinton broth-cation adjusted, 0.02% BSA, 0.2% acetic acid): 2
Minimum inhibitory concentration ([8]; Escherichia coli strain 4, microdilution, Muller Hinton broth-cation adjusted, 0.02% BSA, 0.2% acetic acid): 2
Minimum inhibitory concentration ([8]; Escherichia coli strain 5, microdilution, Muller Hinton broth-cation adjusted, 0.02% BSA, 0.2% acetic acid): 2
Minimum inhibitory concentration ([8]; clinical strains, peptide synthesized as D-form amino acids): 1 µg/mL (≈ 0.619 µM)
Minimum inhibitory concentration ([9]; Enterobacter cloacae strain 1, Muller Hinton broth-cation adjusted): 64
Minimum inhibitory concentration ([9]; Enterobacter cloacae strain 2, Muller Hinton broth-cation adjusted): 64
Minimum inhibitory concentration ([9]; Enterobacter cloacae strain 3, Muller Hinton broth-cation adjusted): 32
Minimum inhibitory concentration ([9]; Enterobacter cloacae strain 4, Muller Hinton broth-cation adjusted): 16
Minimum inhibitory concentration ([9]; Enterobacter cloacae strain 5, Muller Hinton broth-cation adjusted): 16
Minimum inhibitory concentration ([10]; Klebsiella pneumoniae strain 1, Muller Hinton broth-cation adjusted): 128
Minimum inhibitory concentration ([10]; Klebsiella pneumoniae strain 2, Muller Hinton broth-cation adjusted): >128
Minimum inhibitory concentration ([10]; Klebsiella pneumoniae strain 3, Muller Hinton broth-cation adjusted): >128
Minimum inhibitory concentration ([10]; Klebsiella pneumoniae strain 4, Muller Hinton broth-cation adjusted): 64
Minimum inhibitory concentration ([10]; Klebsiella pneumoniae strain 5, Muller Hinton broth-cation adjusted): 64
Minimum inhibitory concentration ([11]; Streptococcus pneumoniae strain 1, Muller Hinton broth-cation adjusted): 64
Minimum inhibitory concentration ([11]; Streptococcus pneumoniae strain 2, Muller Hinton broth-cation adjusted): 64
Minimum inhibitory concentration ([11]; Streptococcus pneumoniae strain 3, Muller Hinton broth-cation adjusted): 64
Minimum inhibitory concentration ([11]; Streptococcus pneumoniae strain 4, Muller Hinton broth-cation adjusted): 128
Minimum inhibitory concentration ([11]; Streptococcus pneumoniae strain 5, Muller Hinton broth-cation adjusted): 64
Minimum inhibitory concentration ([12]; Staphylococcus aureus strain 1, Muller Hinton broth-cation adjusted): 16
Minimum inhibitory concentration ([12]; Staphylococcus aureus strain 2, Muller Hinton broth-cation adjusted): 32
Minimum inhibitory concentration ([12]; Staphylococcus aureus strain 3, Muller Hinton broth-cation adjusted): 32
Minimum inhibitory concentration ([12]; Staphylococcus aureus strain 4, Muller Hinton broth-cation adjusted): 16
Minimum inhibitory concentration ([12]; Staphylococcus aureus strain 5, Muller Hinton broth-cation adjusted): 8
Minimum inhibitory concentration ([13]; Serratia marcescens strain 1, Muller Hinton broth-cation adjusted): >128
Minimum inhibitory concentration ([13]; Serratia marcescens strain 2, Muller Hinton broth-cation adjusted): >128
Minimum inhibitory concentration ([13]; Serratia marcescens strain 3, Muller Hinton broth-cation adjusted): >128
Minimum inhibitory concentration ([13]; Serratia marcescens strain 4, Muller Hinton broth-cation adjusted): >128
Minimum inhibitory concentration ([13]; Serratia marcescens strain 5, Muller Hinton broth-cation adjusted): >128
Minimum inhibitory concentration ([14]; Proteus mirabilis strain 1, Muller Hinton broth-cation adjusted): >128
Minimum inhibitory concentration ([14]; Proteus mirabilis strain 2, Muller Hinton broth-cation adjusted): >128
Minimum inhibitory concentration ([14]; Proteus mirabilis strain 3, Muller Hinton broth-cation adjusted): >128
Minimum inhibitory concentration ([14]; Proteus mirabilis strain 4, Muller Hinton broth-cation adjusted): >128
Minimum inhibitory concentration ([14]; Proteus mirabilis strain 5, Muller Hinton broth-cation adjusted): >128
